For one experiment, the system named is differentiated ND7 cells. The experiment can be described thus: X-gal histochemistry, transfection of differentiated ND7 cells. The format is cell-based, rat/mouse. The protocol: ND7 cells were plated in a 24 well culture plate at a density of 4×10^4 cells per well in normal growth media (+serum). Twenty-four hours later the media was replaced with differentiation media and the cells were grown for an additional 24 hrs. Three different differentiation medias were used; serum-free (−serum), normal growth media plus 1 mM cAMP (cAMP), or reduced serum (0.5%) plus 1 mM cAMP and 50 ng/ml nerve growth factor (NGF). The cells were then transfected with pCMVb complexed with either DC-Chol/DOPE alone or Mu1 plus DC-Chol/DOPE. Forty-eight hours later the cells were fixed and processed for X-Gal histochemistry and the percentage of positive cells determined.
Differentiation of ND7 cells was carried out using three previously described methods ^28, 29. ND7 cells were seeded in NGM at a density of 4×10^4 cells per well in a 24 well culture dish (Nunc). Twenty four hours later the media was replaced with either: a) NGM supplemented with 1 mM adenosine 3′:5′-cyclic monophosphate (cAMP; Sigma), or b) serum-free differentiation media (50% Hams F12, 50% DMEM, 5 μg/mL Transterrin, 250 ng/mL Insulin, 0.3 μM sodium selenite), or c) low serum nerve growth factor (NGF) media (L-15 supplemented with 2 mM glutamine, 4 g/L glucose, 4 g/L sodium bicarbonate, 10 u/mL penicillin, […] streptomycin, 0.5% FCS, 1 mM cAMP, 50 ng/mL NGF (Alomone Labs)). Differentiated ND7 cells were grown in appropriate media for 24 hrs at 37° C., 5% CO2 prior to transfection.
We also examined the ability of Mu1 to improved cationic liposome-mediated transfection in differentiated ND7s. The ND7 cell line is derived from a fusion of primary rat dorsal root ganglia (DRG) neurons and the mouse neuroblastoma N18Tg2 ^28. ND7 cells can be differentiated in a variety of manners including the withdrawal of serum, cAMP administration or exposure to reduced serum plus cAMP and nerve growth factor. Differentiation of ND7s leads to the expression of cellular properties associated with their parental nociceptive sensory neurons including a reduction in cell division and the onset of neurite outgrowth. ND7 cells were seeded in 24 well culture plates and 24 hours later differentiated. Fifteen to 20 hours following the onset of differentiation, they were transfected as above. Fifteen to 20 hours following transfection, cells were fixed and processed for X-gal histochemistry. Consistent with previous observations, transfection efficiencies varied greatly between the three differentiated groups. […] In all three conditions, however, inclusion of Mu1 polypeptide in the transfection complex improved the transduction of differentiated ND7 cells. […] The greatest improvement in efficiencies was seen, however, in the group differentiated by serum withdrawal. Here, increases of greater than 10 fold were observed.

Another experiment relates to plasmid DNA (pCMVβ). The experiment can be described thus: gel retardation assay (DNA binding analysis). As for the experimental part:
One microgram of pCMVβ was incubated with 0 μg (lane 2), 5 μg (lane 3), 10 μg (lane 4), 15 μg (lane 5), 20 μg (lane 6), 25 μg (lane 7) and 30 μg (lane 8) of BSA for 10 minutes at room temperature in 1× HBS. Samples were then analyzed on a 1% agarose gel for altered mobility.
When ratios of 0.5 (w/w) or greater were used, however, migration of both forms of pDNA was severely retarded.
C). The Polyomavirus protein Vp1 was much less efficient at preventing pDNA migration. pCMVβ (1 μg) was incubated with 2 μg (lane 2), 4 μg (lane 3), 6 μg (lane 4), 8 μg (lane 5), 16 μg (lane 6), 32 μg (lane 7) and 0 μg (lane 8) Vp1. Only ratios of 6 or higher (protein: pDNA, w/w) caused significant retardation of supercoiled pDNA (lane 6, lower band). Also, not until a ratio of 32 (w/w) was used was there any effect on relaxed pDNA (lane 7, upper band). In all gels lane 1 corresponds to 1 Kb DNA marker (BRL).
The purified peptides were reconstituted in sterile distilled H2O at 3 mg/mL. Peptide and pDNA were complexed in 20 μL HEPES buffered saline (137 mM NaCl, 5 mM KCl, 0.75 mM Na2HPO4, 19 mM HEPES, pH 7.4) for 20 minutes at room temperature. Peptide: pDNA complexes were subsequently analyzed by agarose gel electrophoresis (1%). Control incubations for general macromolecular pDNA interactions were performed with varying amounts of molecular biology grade purified bovine serum albumin (Sigma).
Varying amounts of purified peptide were incubated at room temperature in HBS for approximately 10 minutes and then analyzed by agarose gel electrophoresis. Without the addition of peptide, supercoiled and relaxed circular plasmid DNA (pDNA) migrated in the expected manner (FIG. 1, lane 8).

In another experiment the test system is Swiss 3T3 cells. The experiment can be described thus: β-galactosidase assay, Mu1 vs protamine in confluent Swiss 3T3 cells. Format: cell-based. To be noted: liposome (B198:DOPE 3:2):peptide:DNA 12:0.6:1, final DNA concentration 5.0 μg/l, 1 or 2 h. The text has this:
Protamine is a naturally occurring cationic peptide abundant in piscine sperm and is potent in neutralising and condensing DNA. The transfection activity of protamine was compared with that of Mu1 peptide. Mu1 peptide or protamine sulfate (Sigma, grade X from Salmon) was complexed with DNA (pCMVβ) and then cationic liposomes (B 198:DOPE in a ratio of 3:2 m/m) giving a liposome:peptide:DNA ratio of 12:0.6:1 (w/w/w).
The transfection activities were examined in Swiss 3T3 cells. The cells were seeded at an approximate density of 2×10^4 per well in a 24-well culture plate in DMEM supplemented with 10% FCS and grown for 48 h to complete confluence in the presence of 5% CO2 at 37° C. Cells were washed by brief exposure to DMEM and then treated with solutions containing LMD or LD complexes, prediluted with DMEM (final DNA concentration 5.0 μg/l in all cases), for 1 or 2 h. Cells were then washed again and incubated for a further 48 h in DMEM supplemented with 10% FCS prior to harvesting. The level of β-galactosidase enzyme activity was determined with a standard assay kit (Promega).

As for H-MRRAHHRRRRASHRRMRGG-OH [Mu1], in the experiment on differentiated ND7 cells (all three differentiation media, Mu1 plus DC-Chol/DOPE vs DC-Chol/DOPE alone), the “number of positive cells (FIG. 6)” value is “increased the number of positive cells”. The “increased efficiency by inclusion of Mu1” value with differentiated ND7 cells (differentiated by cAMP alone) was “greater than 6 fold”; in the experiment with differentiated ND7 cells (differentiated by serum withdrawal), “greater than 10 fold”; with differentiated ND7 cells (low serum/cAMP/NGF), “greater than 6 fold”. In addition, in the experiment with plasmid DNA (pCMVβ) (1 μg pCMVβ, 1% agarose gel), the “ratio of protein to pDNA giving slight retardation of supercoiled pDNA, relaxed form not altered” value came to 0.25 w/w. For the same substance, in the experiment on plasmid DNA (pCMVβ) (1 μg pCMVβ, 1x HBS, 1% agarose gel), the “ratio of protein to pDNA at or above which migration of both forms of pDNA was severely retarded” value is reported as at least 0.5 w/w. Besides, in the experiment on plasmid DNA (pCMVβ) (Mu1 vs Vp1), the “concentration retarding electrophoretic mobility of plasmid DNA relative to Vp1” value is recorded as 1/60. In addition, the “concentration in solution, pDNA retardation” value with plasmid DNA (pCMVβ) (gel retardation complexes, 20 μL) was found to be 25 ng/mL. Besides, in the experiment with Swiss 3T3 cells, the “transfection compared with complexes comprising protamine” value is recorded as “better transfection”.

Values taken from patent publication US20030153081A1, “Viral core protein-cationic lipid-nucleic acid-delivery complexes” (priority 1999, published 2003).
